Values quoted from earlier work as cited in publication PMC12650809, “Evolving Therapeutic Landscape of ROS1-Positive Non-Small Cell Lung Cancer: An Updated Review” (Current Oncology, 2025).
Like-named read-outs stand apart in the source and are kept apart here.

What was measured:
ROS1^G2032R mutation = tested on: ROS1^G2032R mutation; design: method as in PMID 36511802; conditions: preclinical studies
wild-type ROS1 = tested on: wild-type ROS1; design: method as in PMID 36511802; conditions: preclinical studies
ROS1-positive NSCLC [1] = tested on: ROS1-positive NSCLC; design: method as in earlier work; conditions: WCLC 2025 Abstract 4540
ROS1^L2086F = tested on: ROS1^L2086F; design: method as in PMID 38070596; conditions: L2086F, ATP-binding pocket
ROS1^G2032R = tested on: ROS1^G2032R; design: method as in PMID 38070596; conditions: solvent-front substitution
ROS1-positive NSCLC [2] = tested on: ROS1-positive NSCLC
ROS1-positive NSCLC [3] = tested on: ROS1-positive NSCLC; remark: listed apart in the source
[4] = 117 TKI-pretreated patients, WCLC 2025 Abstract 4540
[5] = TKI-naïve patients, n = 35, preliminary, WCLC 2025 Abstract 4540
[6] = TKI-naïve patients, preliminary, WCLC 2025 Abstract 4540
[7] = most common AEs, ref WCLC 2025 Abstract 4540
[8] = grade ≥ 3, ref WCLC 2025 Abstract 4540

For `CCn1ncc2c1-c1cnc(N)c(c1)O[C@H](C)c1cc(F)ccc1-c1nn(C)nc1C2` [Zidesamtinib, zidesamtinib], the IC50 (ROS1^G2032R mutation) is listed as 7.9 nM, the inhibitory activity (wild-type ROS1) is listed as “subnanomolar” and the “ORR if G2032R Mutation (%)” value (ROS1-positive NSCLC [1]; TKI-pretreated patients with G2032R) is listed as 83%. For the same molecule, the “IC-ORR (%)” value (ROS1-positive NSCLC [1]; TKI-pretreated patients) was 48%, the “TKI-Pretreated ORR (%)” value (ROS1-positive NSCLC [1]; TKI-pretreated patients) was 44% and the “mPFS (Months)” value (ROS1-positive NSCLC [1]; TKI-pretreated patients) was 9.7 Months. The “resistance or activity with L2086F” value (ROS1^L2086F) was “cross-resistance”, the “resistance or sensitivity with ROS1^G2032R” value (ROS1^G2032R) was “some sensitivity” and the “12-month DOR rate” value (ROS1-positive NSCLC [2]; [4]) was 78%. The ORR (ROS1-positive NSCLC [2]; [4]) was 44%, the “12-month DOR rate” value (ROS1-positive NSCLC [2]; [5]) was 96% and the ORR (ROS1-positive NSCLC [2]; [5]) was 89%. The “CNS progression events at data cutoff” value (ROS1-positive NSCLC [2]; [6]) was “no CNS progression events”, the IC-ORR (ROS1-positive NSCLC [2]; [6]) was 83% and the “intracranial complete responses (number)” value (ROS1-positive NSCLC [2]; [6]) was “four”. For the same molecule, the constipation (ROS1-positive NSCLC [2]; [7]) was 17%, the creatine phosphokinase elevation (ROS1-positive NSCLC [2]; [7]) was 16% and the dyspnea (ROS1-positive NSCLC [2]; [7]) was 15%. The fatigue (ROS1-positive NSCLC [2]; [7]) was 16%, the peripheral edema (ROS1-positive NSCLC [2]; [7]) was 36% and the treatment discontinuations (ROS1-positive NSCLC [2]; most common reason: pneumonia, ref WCLC 2025 Abstract 4540) was 2%. For the same molecule, the dose reductions (ROS1-positive NSCLC [2]; ref WCLC 2025 Abstract 4540) was 10%, the “Discontinuation for AEs (%)” value (ROS1-positive NSCLC [3]; WCLC 2025 Abstract 4540) was 2% and the “Notable AEs: constipation” value (ROS1-positive NSCLC [3]; WCLC 2025 Abstract 4540) was 17%. For the same molecule, the “Notable AEs: peripheral edema” value (ROS1-positive NSCLC [3]; WCLC 2025 Abstract 4540) was 36%, the “Main Grade ≥ 3 AEs: CPK elevation” value (ROS1-positive NSCLC [3]; [8]) was “CPK elevation (3%), dyspnea (3%)” and the “Main Grade ≥ 3 AEs: dyspnea” value (ROS1-positive NSCLC [3]; [8]) was “CPK elevation (3%), dyspnea (3%)”. For the same molecule, the “Notable AEs: CPK elevation” value (ROS1-positive NSCLC [3]; ref WCLC 2025 Abstract 4540) was 16%, the “Notable AEs: dyspnea” value (ROS1-positive NSCLC [3]; ref WCLC 2025 Abstract 4540) was 15% and the “Notable AEs: fatigue” value (ROS1-positive NSCLC [3]; ref WCLC 2025 Abstract 4540) was 16%.
